Experimental data from paper PMC3517300 (Journal of neurochemistry, 2012).

Experiments:
[1] = target: human DAT (LLC-PK-hDAT cells) (Homo sapiens, UniProt Q01959); test: AMPH-induced [^3H]DA efflux in LLC-PK-hDAT cells; type: cell-based
[2] = tested on: unesterified cholesterol in HEK 293-hDAT cells; test: Cholesterol quantification; type: cell-based, human; conditions: for reduction of cholesterol content compared with untreated cells: 30 min, 37°C
[3] = target: T1, W84L DAT mutant (Homo sapiens, UniProt Q01959, W84L); test: AMPH-induced DA efflux by RDEV, W84L hDAT-HEK 293 cells; type: cell-based; conditions: for effect on AMPH-induced DA efflux Km, Vmax (RDEV): 2.5 mM mβCD or 25 µg/ml nystatin, 10 µM AMPH
T1 sequence (Q01959 1-620 W84L): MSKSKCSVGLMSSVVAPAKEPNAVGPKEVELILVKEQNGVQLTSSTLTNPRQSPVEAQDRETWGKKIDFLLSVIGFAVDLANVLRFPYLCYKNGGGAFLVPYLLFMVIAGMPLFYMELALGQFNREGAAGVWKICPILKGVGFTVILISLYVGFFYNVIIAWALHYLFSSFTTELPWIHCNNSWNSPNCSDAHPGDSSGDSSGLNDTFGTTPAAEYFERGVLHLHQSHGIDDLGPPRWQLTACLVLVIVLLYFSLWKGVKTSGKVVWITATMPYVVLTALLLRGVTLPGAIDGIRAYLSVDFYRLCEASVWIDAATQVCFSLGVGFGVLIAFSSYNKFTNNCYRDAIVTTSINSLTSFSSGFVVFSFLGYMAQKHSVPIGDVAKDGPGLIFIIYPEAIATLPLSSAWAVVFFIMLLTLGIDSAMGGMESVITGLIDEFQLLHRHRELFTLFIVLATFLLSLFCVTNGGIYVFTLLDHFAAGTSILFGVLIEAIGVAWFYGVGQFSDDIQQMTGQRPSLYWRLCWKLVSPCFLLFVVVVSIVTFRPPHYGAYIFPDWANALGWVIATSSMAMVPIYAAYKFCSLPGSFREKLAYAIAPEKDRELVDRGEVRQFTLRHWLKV

[4] = target: human dopamine transporter (DAT WT) (Homo sapiens, UniProt Q01959); test: AMPH-induced DA efflux by RDEV, HEK 293-hDAT; type: cell-based; conditions: for effect on Km and Vmax of AMPH-induced DA efflux (RDEV) / effect on corrected efflux Vmax: WT; for effect on Km and Vmax of AMPH-induced DA efflux (RDEV): 5.0 mM mβCD or 25 µg/ml nystatin, 10 µM AMPH; for effect on corrected efflux Vmax: repletion with 200 µM sterol after 5.0 mM mβCD, or 25 µg/ml nystatin
Chain of human dopamine transporter (DAT WT) (Q01959 whole entry): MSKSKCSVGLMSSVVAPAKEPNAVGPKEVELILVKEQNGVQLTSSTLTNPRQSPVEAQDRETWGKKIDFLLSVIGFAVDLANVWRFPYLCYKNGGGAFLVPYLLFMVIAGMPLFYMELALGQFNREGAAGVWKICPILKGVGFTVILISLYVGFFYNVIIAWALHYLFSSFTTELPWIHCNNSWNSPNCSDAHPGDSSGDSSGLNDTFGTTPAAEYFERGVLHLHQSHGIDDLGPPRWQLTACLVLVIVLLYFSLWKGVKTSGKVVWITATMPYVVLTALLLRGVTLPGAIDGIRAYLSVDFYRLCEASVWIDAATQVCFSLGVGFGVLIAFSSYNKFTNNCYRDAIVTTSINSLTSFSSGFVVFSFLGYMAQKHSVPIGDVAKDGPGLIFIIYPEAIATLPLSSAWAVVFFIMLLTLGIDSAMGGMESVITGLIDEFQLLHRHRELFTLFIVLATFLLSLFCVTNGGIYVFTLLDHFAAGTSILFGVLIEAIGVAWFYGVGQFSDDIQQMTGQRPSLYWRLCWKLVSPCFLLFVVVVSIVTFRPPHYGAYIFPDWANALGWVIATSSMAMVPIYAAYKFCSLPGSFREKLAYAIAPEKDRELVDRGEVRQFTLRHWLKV

[5] = tested on: hDAT surface expression in HEK-293 cells; test: Surface biotinylation and immunoblot of DAT; type: cell-based, human; conditions: treatment with mβCD, nystatin, or repletion with cholesterol or desmosterol
[6] = target: T1, W84L DAT mutant; test: DA uptake by RDEV, W84L hDAT-HEK 293 cells; type: cell-based; conditions: 2.5 mM mβCD or 25 µg/ml nystatin
[7] = tested on: DAT in lipid rafts of HEK-293 hDAT cells; test: Sucrose density fractionation, DAT association with lipid rafts; type: cell-based, human; conditions: 1% Brij; depletion/chelation or repletion of mβCD depleted cells
[8] = tested on: DAT; conditions: raft-enriched fractions vs whole cells; ref Foster et al. 2008; cited from earlier work
[9] = tested on: cholesterol-depleted HuH7 hepatoma cells or hippocampal membranes; conditions: within 1 hr; ref Vainio et al. 2006; Singh et al. 2009; cited from earlier work

Chain of human DAT (LLC-PK-hDAT cells) (Q01959 whole entry): as above

Compound	effect on AMPH-induced DA efflux Km, Vmax (RDEV) [3]	effect on Km and Vmax of AMPH-induced DA efflux (RDEV) [4]	effect on corrected efflux Vmax [4]	changes in levels of DAT (total lysates and biotinylated surface fraction) [5]	effect on DA uptake Vmax and Km (RDEV) [6]	DAT distribution across sucrose gradient fractions (raft association) [7]	further results
C[C@H](N)Cc1ccccc1 [AMPH, dextroamphetamine]	–	–	–	–	–	–	[^3H]DA efflux over basal efflux ([1]; 10 µM AMPH, control cells, 5 min, 25°C): ~ 144%
C[C@@H]1[C@H](O)[C@@H](C)/C=C/C=C/CC/C=C/C=C/C=C/C=C/C(O[C@H]2O[C@H](C)[C@@H](O)[C@H](N)[C@@H]2O)CC2O[C@](O)(CC(O)C(O)CCC(O)CC(O)CC(O)CC(=O)O[C@H]1C)CC(O)C2C(=O)O (some centres unmarked) [nystatin]	did not affect	no effect	no significant change	no significant changes	did not significantly change Vmax or Km	significant shift of DAT out of raft fractions 3–4 into denser fractions 7 and up	change of overall content of cholesterol ([2]; 25 µg/ml): did not change; AMPH-induced [^3H]DA efflux over basal levels ([1]; nystatin treated cells, 10 µM AMPH): 150%
CC(C)CCC[C@@H](C)[C@H]1CC[C@H]2[C@@H]3CC=C4C[C@@H](O)CC[C@]4(C)[C@H]3CC[C@]12C [cholesterol]	–	–	indistinguishable from control values	no significant changes	–	restored DAT association with low buoyant density fractions	–
methyl-β-cyclodextrin [mβCD]	partial rescue of efflux Vmax	large reduction	–	no significant changes	enhanced uptake Vmax without altering Km	significant shift of DAT out of raft fractions 3–4 into denser fractions 7 and up	reduction of cholesterol content compared with untreated cells ([2]; 2.5 mM): 39%; reduction of cholesterol content compared with untreated cells ([2]; 5.0 mM): 63%; effect on Vmax ratio (incorporating the uptake correction) ([3]; 2.5 mM mβCD): rescued to that of DAT WT control; reduction in reverse transport (corrected efflux Vmax) ([4]; 5.0 mM mβCD vs control, 37°C): ~ 40%; AMPH-induced [^3H]DA efflux over basal levels ([1]; 2.5 mM mβCD, 10 µM AMPH): 122%; AMPH-induced [^3H]DA efflux over basal levels ([1]; 5.0 mM mβCD, 10 µM AMPH): 115%; loss in efflux function ([1]; 2.5 and 5.0 mM mβCD): ~ 20%
NCCc1ccc(O)c(O)c1 [DA, dopamine]	–	–	–	–	–	–	IC50 of DA competing for [^3H]CFT binding, rafts vs whole cells [8]: two-fold higher
CC(C)=CCC[C@@H](C)[C@H]1CC[C@H]2[C@@H]3CC=C4C[C@@H](O)CC[C@]4(C)[C@H]3CC[C@]12C [desmosterol]	–	–	indistinguishable from control values	no significant changes	–	inefficient at restoring rafts	increase in cholesterol after replenishment with desmosterol [9]: ≤ 10%
